Experimental data taken from US7524646B2 (priority 2001, dated 2009).

What was measured:
Type in all cases: cell-based, E. coli
[1] = test system: Δilv strain CU505 (wild-type valS); assay: Amino acid composition of total protein after growth with Abu, wild-type valS; settings: WT + Abu (0.2 mM); 24 hours; relative to WT control that lacked Abu
Protocol: (§1) We anticipated that ValRS mutants that misincorporated Cys would also misincorporate Abu. […] Whole cell protein was isolated from strain CU505 grown in the presence of Abu (0.2 mM), in the presence or absence of the valS:T222P allele in the host cell. […] Finally, the valine-rich yeast protein AlaXp (swissprot:P53960) was overexpressed and purified from strains containing the valS:T222P allele grown in the presence of Abu. The protein samples were digested by trypsin and analyzed by mass spectrometry. […] For a given peptide the degree of misincorporation ranged between 9.5% and 18% per Val codon. Sequencing of several Abu-containing peptides confirmed that Abu was specifically misincorporated into positions designated by Val codons.
(§2) Table 2. Incorporation of Abu into cells bearing wild-type and T222P mutant alleles of valS. Cultures of the Δilv strain CU505 (19) and the isogenic strain β5498 carrying the valS:T222P allele were grown overnight in minimal medium (27) with Ile-Leu (0.3 mM) and limiting valine (0.04 mM Ile-Val), diluted (1/2), and adjusted with Ile-Val (0.02 mM) with or without Abu (0.2 mM). After 24 hours of growth, total protein was extracted as follows. Cells were first harvested by centrifugation and washed in cold 10% trichloroacetic acid (TCA, 1/2 of the culture volume). Cells were then re-centrifuged at 4000×g for 10 min, resuspended in cold 10% TCA (1/10 of the culture volume) and centrifuged again. The washed cells were resuspended in […], heated at 95° C. for 30 minutes and centrifuged (4000×g, 10 min). The precipitate was washed three times with cold acetone and dissolved in 50 mM NH4HCO3. Proteins were hydrolyzed in 6 N HCl-0.2% phenol at 110C. for 20 h in sealed tubes. Norleucine was added as an internal standard. Aliquots of the hydrolysates were analyzed on a Beckman 6300 Amino Acid Analyzer. Amino acids were quantified by appropriate standards and values are presented relative the wild-type (WT) control that lacked Abu.

[2] = test system: strain β5498 (valS:T222P allele); assay: Growth of valine auxotroph with limiting valine and Abu, valS:T222P; settings: Abu 0.2 mM; limiting valine 0.02 mM; OD 600 nm, 24 h, 30° C.
Protocol: (§3) FIG. 3. A graph showing the results of growth of the valine auxotroph CU505 in the presence of a limiting supply of valine and increasing concentrations of Abu. Overnight cultures of Δilv auxotrophs containing the WT valS (É) or the mutant valS:T222P allele (J) and grown in MS glucose medium with limiting valine (0.04 mM Ile-Val. 0.3 mM Ile-Leu) were diluted 1/1, the Val concentration was adjusted to 0.02 mM and the biomass was determined by measuring the optical density at 600 nm after 24 h of growth at 30° C.
(§4) Abu misincorporation. The valine auxotroph CU505 (33) was grown in the presence of a limiting supply of valine and increasing concentrations of Abu (FIG. 3). […] In contrast, when the valST222P allele was introduced into the chromosome (strain β5498), the yield of cells was diminished in the absence of Abu but increased up to 30% when Abu (0.2 mM) was added.

[3] = test system: strain β5498 carrying the valS:T222P allele; assay: Amino acid composition of total protein after growth with Abu, valS:T222P; settings: for valine in cellular protein replaced by Abu: whole cell protein, strain harboring the mutant allele, Abu 0.2 mM
Protocol: as §1, §2

valine auxotroph CU505 = assay: Growth of valine auxotroph with limiting valine and increasing Abu, wild-type valS; settings: up to 1 mM Abu; OD 600 nm, 24 h, 30° C.
Protocol: as §3, §4

[4] = test system: strain β5456 (valS:T222P); assay: Growth on Abu gradient plates, valS:T222P strain; settings: gradient plate, 50 μl 0.1 M, 2 days at 37° C.
Protocol: FIG. 1C: Photographs showing the results of growth of a strain carrying the valS:T222P allele in the presence of L-threonine or Abu. Minimal medium plates supplemented with thymidine (0.3 mM) were pretreated with amino acid solutions by streaking either with Thr (50 μl (0.2 M)) or Abu (50 μl (0.1 M)) vertically along the diameter of the plate to create an amino acid gradient. Mutant (β5456) and wild-type (β5419 (thyA::erm+ ΔnrdD::kan+ pTS13 (bla+ thyA: 146GUA)) strains were then streaked horizontally across the plates and incubated for 2 days at 37° C.
as §1

[5] = T222P + Abu (0.2 mM), 24 hours, relative to WT control that lacked Abu

## CCC(N)C(=O)O (stereo not drawn) [Abu, α-aminobutyric acid]
[1]
  Abu incorporated into total protein: 0.0
  Ala incorporated into total protein: 1.0
  Ile incorporated into total protein: 1.0
  Val + Abu incorporated into total protein: 1.0
  Val incorporated into total protein: 1.0
[2]
  increase of yield of cells: up to 30%
[3]; [5]
  Abu incorporated into total protein: 0.24
  Ala incorporated into total protein: 0.92
  Ile incorporated into total protein: 1.0
  Val + Abu incorporated into total protein: 0.97
  Val incorporated into total protein: 0.73
[3]
  valine in cellular protein replaced by Abu: 24%
[3]; listed as aminobutyrate
  valine in cellular protein replaced by Abu: Over 20%
Valine auxotroph CU505
  biomass of cells relative to the valine concentration: did not change
[4]
  sensitivity of growth to Abu: sensitive
